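Briefly, cells in 96-well plates were exposed to five compound concentrations for 48 h, and endpoints were estimated by linear interpolation. The concentration for full growth arrest is given as TGI.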
What was measured:
Test in all cases: NCI anticancer screen, dose series, 48 h
[1] = test system: ACHN renal
[2] = test system: MOLT-4 leukemia
[3] = test system: SW-620 colon
[4] = test system: RXF 393 renal
[5] = test system: SNB-75 CNS
[6] = test system: A498 renal
[7] = test system: HOP-92 NSCLC
[8] = test system: DMS 273 small cell lung
[9] = test system: DLD-1 colon
[10] = test system: TK-10 renal
[11] = test system: NCI-H460 lung
[12] = test system: SF-268 CNS
[13] = test system: DMS 114 small cell lung
[14] = test system: SN12C renal
[15] = test system: NCI-H23 lung
[16] = test system: HCT-15 colon
[17] = test system: SNB-19 CNS
[18] = test system: XF 498 CNS
[19] = test system: SK-MEL-2 melanoma
[20] = test system: LOX IMVI melanoma
[21] = test system: HCC-2998 colon
[22] = test system: KM20L2 colon
[23] = test system: CCRF-CEM leukemia
[24] = test system: SK-OV-3 ovarian
[25] = test system: HOP-62 NSCLC
[26] = test system: U251 CNS
[27] = test system: M14 melanoma
[28] = test system: 786-0 renal
[29] = test system: KM12 colon
[30] = test system: SF-295 CNS
[31] = test system: UACC-257 melanoma
[32] = test system: COLO 205 colon
[33] = test system: SR leukemia
[34] = test system: NCI-H226 lung
[35] = test system: HOP-18 NSCLC
[36] = test system: HT29 colon
[37] = test system: RPMI-8226 leukemia
[38] = test system: HCT-116 colon
[39] = test system: SK-MEL-5 melanoma
[40] = test system: HL-60(TB) leukemia
[41] = test system: LXFL 529 NSCLC
[42] = test system: A549 NSCLC
[43] = test system: MALME-3M melanoma
[44] = test system: SK-MEL-28 melanoma

Measured: TGI

O=C(N/N=C/c1cccc(F)c1)c1ccncc1
3.78 µM: [34]
> 100 µM: all other assays above

Reference: PubChem BioAssay (NCI)
